Experimental data as given in publication PMC3958483, “Fine Specificity and Molecular Competition in SLAM Family Receptor Signalling” (PLoS ONE, 2014).

Key:
[1] = Pull-down with EAT-2 Y127 phosphopeptide from NK92 lysates, LC-MS/MS; format: binding, human; settings: NK92 cell lysates
Method: (§1) For pull-down of associated proteins, streptavidin Sepharose (GE Healthcare) was pre-coated with saturating amounts of peptide or EAT-2. NK92 cells (4×10^8) were treated with 500 μM pervanadate for 15 minutes, then lysed in PBS, 1% Triton X-100, 1 mM sodium orthovanadate in the presence of mammalian protease inhibitor solution (Sigma). Lysates were pre-cleared by centrifugation, followed by incubation with streptavidin Sepharose. Peptide or EAT-2-coated streptavidin beads were incubated with NK92 lysates for 2 hours at 4°C with rotation. Beads were washed once with 15 ml ice cold PBS/1% (v/v) Triton X-100. Bound protein was eluted using 100 mM glycine-HCl pH 2.5.
Protein samples were prepared for mass spectrometry as described previously. Briefly, eluted proteins were spun onto the membranes of Vivacon 500 filters (10,000 MWCO – Sartorius). Membranes were washed once with PBS then proteins were denatured with 8 M urea, reduced with 10 mM DTT in 25 mM ammonium bicarbonate buffer, followed by alkylation with 50 mM iodoacetamide. Proteins were then digested overnight with trypsin. Tryptic peptides were then eluted from the membrane and analyzed on an Ultimate 3000 HPLC-coupled Orbitrap XL mass spectrometer. […] Raw data files were converted to mzXML format using ReADW (v. 4.2.1) and submitted to the Central Proteomics Facilities Pipeline for database comparison and peptide identification. […]

[2] = Pull-down with phosphorylated CD244 ITSM1 from NK cell lysates, LC-MS/MS; format: binding; settings: human NK cell lysates; compared with control phosphopeptide SHIP-1 Y865
Method: as §1
Protein samples were prepared for mass spectrometry as described previously. Briefly, eluted proteins were spun onto the membranes of Vivacon 500 filters (10,000 MWCO – Sartorius). Membranes were washed once with PBS then proteins were denatured with 8 M urea, reduced with 10 mM DTT in 25 mM ammonium bicarbonate buffer, followed by alkylation with 50 mM iodoacetamide. Proteins were then digested overnight with trypsin. Tryptic peptides were then eluted from the membrane and analyzed on an Ultimate 3000 HPLC-coupled Orbitrap XL mass spectrometer. Proteins were identified by liquid chromatography-coupled tandem mass-spectrometry (LC-MS/MS). Raw data files were converted to mzXML format using ReADW (v. 4.2.1) and submitted to the Central Proteomics Facilities Pipeline for database comparison and peptide identification. Searching against the International Protein Index (IPI) human protein sequence database for protein identification, protein and peptide hits were statistically validated by applying a 1% false discovery rate (FDR) by searching against a concatenated target/decoy database. Datasets were searched with variable peptide modifications for phosphotyrosine, phosphoserine, phosphothreonine, oxidation of methionine and deamination.
Protein identification data were exported into ProteinCenter (v3.8.3013 – Thermo Fisher) for filtering and annotation. Results were filtered to remove any proteins with less than 3 unique peptides, less than 10 percent sequence coverage, or median protein probability scores less than 0.5. To establish sample specificity, any protein with at least 10-fold greater sequence coverage in one sample compared with the other was considered to be specific for that sample.
Similarly, differences in specificity of inhibitory SH2 domain containing proteins for ITSMs are relevant to understanding mechanisms of inhibition by ITSMs. We focused on CD244 ITSMs to establish general paradigms.

[3] = system: NK92 cells; experiment: IFNγ production by NK92 cells; format: cell-based, human; settings: TJW, unpublished

Row | Substance | pull-down by EAT-2 Y127 [1] | pull-down by CD244 ITSM1 [2] | effect on IFNγ production by NK92 cells [3]
1 | Fyn: Src-family kinase | Notably absent from this list |  | 
2 | PLCγ1: phospholipase C gamma-1 |  | pulled down by the ITSM peptide | inhibitory
